In ChEMBL document CHEMBL6078723, “Novel steroidal β-carboline derivatives as promising antibacterial candidates against methicillin-resistant Staphylococcus aureus” (Eur J Med Chem, 2025):
Calls of active or inactive are those of the source. The calls are words filed in the database; no cut-off is given here.

Columns and labels:
Staphylococcus aureus [1] = assay: Antibacterial activity against methicillin-resistant Staphylococcus aureus ATCC 33591 in presence of Ca2+ (reference value: 1 ug/ml); type: functional
Staphylococcus aureus [2] = assay: Antibacterial activity against methicillin-resistant Staphylococcus aureus CGMCC1.12409 infected in mouse model assessed as reduction in bacterial load at infection site at 10 mg/kg measured for 5 days relative to control; type: functional; design: scale not given: the % may be the effect or the level left; details: time 5 day
[3] = Hemolytic activity in rabbit RBC; type: toxicity, cell-based, Oryctolagus cuniculus, Erythrocyte; details: rabbit red blood cells
Staphylococcus aureus [4] = assay: Antibacterial activity against methicillin-resistant Staphylococcus aureus ATCC 33591; type: functional
Staphylococcus aureus [5] = assay: Antibacterial activity against methicillin-resistant Staphylococcus aureus ATCC 43300 in presence of Zn2+ (reference value: 0.5 ug/ml); type: functional
Staphylococcus aureus [6] = assay: Induction of cell membrane damage in Staphylococcus aureus CGMCC1.8721 assessed as red fluorescence at 4 times MIC by SYTO9/PI staining based CLSM analysis; type: functional, organism-based
Staphylococcus aureus [7] = assay: Antibacterial activity against methicillin-resistant Staphylococcus aureus ATCC 33591 in presence of Fe2+ (reference value: 1 ug/ml); type: functional
Staphylococcus aureus [8] = assay: Antibacterial activity against methicillin-resistant Staphylococcus aureus ATCC 43300 at 37.5 degreeC (reference value: 0.5 ug/ml); type: functional
Staphylococcus aureus [9] = assay: Antibacterial activity against Staphylococcus aureus CGMCC1.8721 in presence of PGN; type: functional, organism-based
Staphylococcus aureus [10] = assay: Antibacterial activity against methicillin-resistant Staphylococcus aureus CGMCC1.12409 infected in mouse model assessed as reduction in abscesses size at 5 to 10 mg/kg measured for 5 days; type: functional, organism-based; details: dose 5-10 mg/kg, time 5.0 day
Staphylococcus aureus [11] = assay: Induction of morphological change in Staphylococcus aureus CGMCC1.8721 assessed as appearance of surface folds at MIC by […] SEM analysis; type: functional, organism-based
Staphylococcus aureus [12] = assay: Antibacterial activity against methicillin-resistant Staphylococcus aureus CGMCC1.12409 in presence of H2PO4- (reference value: 0.5 ug/ml); type: functional
Staphylococcus aureus [13] = assay: Antibacterial activity against methicillin-resistant Staphylococcus aureus CGMCC1.12409 infected in mouse model assessed as smooth dorsal skin at 10 mg/kg measured for 5 days; type: functional, organism-based; details: route sc, time 5.0 day
Staphylococcus aureus [14] = assay: Antibacterial activity against Staphylococcus aureus CGMCC1.8721 in presence of K+ (reference value: 0.5 ug/ml); type: functional
Staphylococcus aureus [15] = assay: Antibacterial activity against methicillin-resistant Staphylococcus aureus ATCC 43300 at pH 8 (reference value: 0.5 ug/ml); type: functional
Staphylococcus aureus [16] = assay: Antibacterial activity against Staphylococcus aureus CGMCC1.8721 in presence of H2PO4- (reference value: 0.5 ug/ml); type: functional
Staphylococcus aureus [17] = assay: Induction of loss of membrane integrity in Staphylococcus aureus CGMCC1.8721 assessed as protein leakage; type: functional, organism-based
Staphylococcus aureus [18] = assay: Antibacterial activity against methicillin-resistant Staphylococcus aureus CGMCC1.12409 in presence of Fe2+ (reference value: 0.5 ug/ml); type: functional
HEK-293T = assay: Cytotoxicity against HEK293T cells at 40 uM by CCK8 assay relative to control; type: toxicity, cell-based; details: human
Staphylococcus aureus [19] = assay: Antibacterial activity against methicillin-resistant Staphylococcus aureus ATCC 43300 in presence of Na+ (reference value: 0.5 ug/ml); type: functional
Staphylococcus aureus [20] = assay: Antibacterial activity against Staphylococcus aureus CGMCC1.8721 in presence of Mg2+ (reference value: 0.5 ug/ml); type: functional
Staphylococcus aureus [21] = assay: Antibacterial activity against methicillin-resistant Staphylococcus aureus ATCC 33591 in presence of Zn2+ (reference value: 1 ug/ml); type: functional
[22] = Selectivity index, ratio of HC50 for hemolytic activity in rabbit RBC to MIC for antibacterial activity against Staphylococcus aureus; type: toxicity, cell-based; details: rabbit red blood cells
Staphylococcus aureus [23] = assay: Antibacterial activity against methicillin-resistant Staphylococcus aureus ATCC 33591 at pH 6.5 (reference value: 1 ug/ml); type: functional
Staphylococcus aureus [24] = assay: Antibacterial activity against methicillin-resistant Staphylococcus aureus CGMCC1.12409 infected in mouse model assessed as reduction in abscesses in subcutaneous tissues at 10 mg/kg measured for 5 days; type: functional, organism-based; details: time 5.0 day
Staphylococcus aureus [25] = assay: Antibacterial activity against Staphylococcus aureus CGMCC1.8721 at pH 8 (reference value: 0.5 ug/ml); type: functional
Staphylococcus aureus [26] = assay: Induction of morphological change in Staphylococcus aureus CGMCC1.8721 assessed as leakage of intracellular components at 4 times MIC by […] SEM analysis; type: functional, organism-based
Staphylococcus aureus [27] = assay: Antibacterial activity against Staphylococcus aureus CGMCC1.8721 in presence of Na+ (reference value: 0.5 ug/ml); type: functional
Staphylococcus aureus [28] = assay: Antibacterial activity against Staphylococcus aureus CGMCC1.8721 in presence of Ca2+ (reference value: 0.5 ug/ml); type: functional
Staphylococcus aureus [29] = assay: Antibacterial activity against methicillin-resistant Staphylococcus aureus CGMCC1.12409 in presence of Fe3+ (reference value: 0.5 ug/ml); type: functional
Staphylococcus aureus [30] = assay: Antibacterial activity against methicillin-resistant Staphylococcus aureus ATCC 33591 in presence of Mg2+ (reference value: 1 ug/ml); type: functional
Staphylococcus aureus [31] = assay: Antibacterial activity against methicillin-resistant Staphylococcus aureus CGMCC1.12409 infected in mouse model assessed as reduction in bacterial load at infection site at 5 mg/kg measured for 5 days relative to control; type: functional; design: scale not given: the % may be the effect or the level left; details: time 5 day
Staphylococcus aureus [32] = assay: Bactericidal activity against methicillin-resistant Staphylococcus aureus ATCC 43300 by CLSI based method; type: functional
Staphylococcus aureus [33] = assay: Induction of membrane depolarization in Staphylococcus aureus CGMCC1.8721 by DiSC3(5) dye based analysis; type: functional, organism-based
HeLa = assay: Cytotoxicity against human HeLa cells at 40 uM by CCK8 assay relative to control; type: toxicity, cell-based
Staphylococcus aureus [34] = assay: Antibacterial activity against methicillin-resistant Staphylococcus aureus CGMCC1.12409 in presence of Zn2+ (reference value: 0.5 ug/ml); type: functional
Staphylococcus aureus [35] = assay: Bactericidal activity against methicillin-resistant Staphylococcus aureus CGMCC1.12409 by CLSI based method; type: functional
Staphylococcus aureus [36] = assay: Antibacterial activity against methicillin-resistant Staphylococcus aureus ATCC 33591 in presence of Fe3+ (reference value: 1 ug/ml); type: functional
Staphylococcus aureus [37] = assay: Antibacterial activity against methicillin-resistant Staphylococcus aureus CGMCC1.12409 infected in mouse model assessed as reduction in inflammation in skin tissues at 5 to 10 mg/kg measured for 5 days by H and E staining based analysis; type: functional, organism-based; details: dose 5-10 mg/kg, time 5.0 day
Staphylococcus aureus [38] = assay: Antibacterial activity against Staphylococcus aureus CGMCC1.8721 in presence of phosphatidylcholine; type: functional, organism-based
Staphylococcus aureus [39] = assay: Antibacterial activity against methicillin-resistant Staphylococcus aureus ATCC 43300 at pH 6.5 (reference value: 0.5 ug/ml); type: functional
Staphylococcus aureus [40] = assay: Antibacterial activity against methicillin-resistant Staphylococcus aureus ATCC 33591 in presence of H2PO4- (reference value: 1 ug/ml); type: functional
Staphylococcus aureus [41] = assay: Antibacterial activity against methicillin-resistant Staphylococcus aureus CGMCC1.12409 at 36.5 degreeC (reference value: 0.5 ug/ml); type: functional

COc1ccc2[nH]c3c(CC[C@H](C)[C@H]4CC[C@H]5[C@@H]6[C@H](O)C[C@@H]7C[C@H](O)CC[C@]7(C)[C@H]6C[C@H](O)[C@]45C)[n+](Cc4ccc(Cl)cc4)ccc3c2c1.[Br-]
MIC (Staphylococcus aureus [1]): 1 µg/mL
Activity (Staphylococcus aureus [2]): 98.55%
HC50 [3]: > 256 µg/mL
MIC (Staphylococcus aureus [4]): 1 µg/mL
MIC (Staphylococcus aureus [5]): 0.5 µg/mL
Activity (Staphylococcus aureus [6]): Active
MIC (Staphylococcus aureus [7]): 1 µg/mL
MIC (Staphylococcus aureus [8]): 0.5 µg/mL
Activity (Staphylococcus aureus [9]): Active
Activity (Staphylococcus aureus [10]): Active
Activity (Staphylococcus aureus [11]): Active
MIC (Staphylococcus aureus [12]): 1 µg/mL
Activity (Staphylococcus aureus [13]): Active
MIC (Staphylococcus aureus [14]): 0.5 µg/mL
MIC (Staphylococcus aureus [15]): 0.5 µg/mL
MIC (Staphylococcus aureus [16]): 0.5 µg/mL
Activity (Staphylococcus aureus [17]): Dose-dependent-effect
MIC (Staphylococcus aureus [18]): 1 µg/mL
Activity (HEK-293T): Non-toxic
MIC (Staphylococcus aureus [19]): 0.5 µg/mL
MIC (Staphylococcus aureus [20]): 0.5 µg/mL
MIC (Staphylococcus aureus [21]): 1 µg/mL
selectivity ratio [22]: > 256
MIC (Staphylococcus aureus [23]): 1 µg/mL
Activity (Staphylococcus aureus [24]): Active
MIC (Staphylococcus aureus [25]): 0.5 µg/mL
Activity (Staphylococcus aureus [26]): Active
MIC (Staphylococcus aureus [27]): 0.5 µg/mL
MIC (Staphylococcus aureus [28]): 0.5 µg/mL
MIC (Staphylococcus aureus [29]): 1 µg/mL
MIC (Staphylococcus aureus [30]): 1 µg/mL
Activity (Staphylococcus aureus [31]): 94.33%
MBC (Staphylococcus aureus [32]): 1 µg/mL
Activity (Staphylococcus aureus [33]): Dose-dependent-effect
Activity (HeLa): Non-toxic
MIC (Staphylococcus aureus [34]): 1 µg/mL
MBC (Staphylococcus aureus [35]): 1 µg/mL
MIC (Staphylococcus aureus [36]): 1 µg/mL
Activity (Staphylococcus aureus [37]): Active
Activity (Staphylococcus aureus [38]): Active
MIC (Staphylococcus aureus [39]): 0.5 µg/mL
MIC (Staphylococcus aureus [40]): 1 µg/mL
MIC (Staphylococcus aureus [41]): 0.5 µg/mL
